Data: ChEMBL document CHEMBL1833965, “A new N-methyl thymine derivative comprising a dihydroxyisobutenyl unit as ligand for thymidine kinase of herpes simplex virus type 1 (HSV-1 TK)” (Bioorg Med Chem Lett, 2011)
Activity calls are given as the source filed them. No cut-off for these calls is given here.

Experiments:
[1] = tested on: MIA PaCa-2; test: Antiproliferative activity against human MIAPaCa2 cells after 72 hrs by MTT assay; assay type: functional, cell-based; conditions: MIA PaCa-2, 72 h
[2] = tested on: SW-620; test: Antiproliferative activity against human SW620 cells after 72 hrs by MTT assay; assay type: functional, cell-based; conditions: SW-620, 72 h
[3] = tested on: HepG2; test: Antiproliferative activity against human HepG2 cells after 72 hrs by MTT assay; assay type: functional, cell-based; conditions: HepG2, 72 h
[4] = tested on: HeLa; test: Antiproliferative activity against human HeLa cells after 72 hrs by MTT assay; assay type: functional, cell-based
[5] = tested on: WI-38; test: Antiproliferative activity against human WI38 cells after 72 hrs by MTT assay; assay type: cell-based; conditions: WI-38, 72 h
[6] = tested on: MCF7; test: Antiproliferative activity against human MCF7 cells after 72 hrs by MTT assay; assay type: functional, cell-based; conditions: MCF7, 72 h
[7] = biological target: T1, Thymidine kinase (Human alphaherpesvirus 1) (UniProt Q9QNF7); test: Activity of HSV-1 GST-TK assessed as formation of ADP by HPLC analysis
T1 sequence (whole entry): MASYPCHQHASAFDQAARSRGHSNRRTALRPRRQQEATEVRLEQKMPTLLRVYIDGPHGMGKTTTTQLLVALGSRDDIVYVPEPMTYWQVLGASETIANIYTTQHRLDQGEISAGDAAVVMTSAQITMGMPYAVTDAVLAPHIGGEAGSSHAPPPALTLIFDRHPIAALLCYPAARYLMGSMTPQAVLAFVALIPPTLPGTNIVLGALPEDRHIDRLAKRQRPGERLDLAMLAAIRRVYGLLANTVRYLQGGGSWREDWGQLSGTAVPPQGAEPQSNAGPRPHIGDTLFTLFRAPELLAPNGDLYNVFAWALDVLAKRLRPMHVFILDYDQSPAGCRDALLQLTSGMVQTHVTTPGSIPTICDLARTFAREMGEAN

[8] = biological target: T2, Thymidine kinase, cytosolic (Homo sapiens) (UniProt P04183); test: Activity of human 6xHis-tagged TK assessed as formation of compound-monophosphate by HPLC analysis
T2 sequence (whole entry): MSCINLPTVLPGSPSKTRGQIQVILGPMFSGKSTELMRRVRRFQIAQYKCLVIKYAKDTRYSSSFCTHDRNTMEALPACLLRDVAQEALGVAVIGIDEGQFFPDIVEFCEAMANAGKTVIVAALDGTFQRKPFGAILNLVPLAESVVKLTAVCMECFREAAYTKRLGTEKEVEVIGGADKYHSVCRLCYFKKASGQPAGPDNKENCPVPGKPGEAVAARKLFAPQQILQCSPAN

[9] = biological target: T1, Thymidine kinase (Human alphaherpesvirus 1); test: Activity of HSV-1 GST-TK assessed as increase in ADP to ATP ratio at 1 mM after 30 mins
[10] = biological target: T2, Thymidine kinase, cytosolic (Homo sapiens); test: Activity of human 6xHis-tagged TK assessed as formation of ADP by HPLC analysis
[11] = biological target: T1, Thymidine kinase (Human alphaherpesvirus 1); test: Activity of HSV-1 GST-TK assessed as formation of compound-monophosphate by HPLC analysis
[12] = biological target: T2, Thymidine kinase, cytosolic (Homo sapiens); test: Activity of human 6xHis-tagged TK assessed as effect on ADP to ATP ratio at 1 mM after 30 mins

Question: Which results are given for `COc1nc(CC(O)(COC(C)=O)COC(C)=O)c(C)c(OC)n1`?
Answer: IC50 [1]: > 100 µM; IC50 [2]: > 100 µM; IC50 [3]: > 100 µM; IC50 [4]: > 100 µM; IC50 [5]: > 100 µM; IC50 [6]: > 100 µM

Question: What does the source list for `CC(=O)OCC(O)(COC(C)=O)Cc1c(C)c(=O)[nH]c(=O)n1C`?
Answer: IC50 [1]: > 100 µM; IC50 [2]: > 100 µM; IC50 [3]: > 100 µM; IC50 [4]: > 100 µM; IC50 [5]: > 100 µM; IC50 [6]: > 100 µM

Question: Which IC50 [1] does the source give for `Cc1c(CC(O)(CO)CO)n(C)c(=O)[nH]c1=O` here?
Answer: > 100 µM

Question: What about the IC50 [2] of the same compound?
Answer: > 100 µM

Question: And the IC50 [3]?
Answer: > 100 µM

Question: And the IC50 [4]?
Answer: > 100 µM

Question: And the IC50 [5]?
Answer: > 100 µM

Question: And the IC50 [6]?
Answer: > 100 µM

Question: With `COc1nc(CC(O)(COCc2ccccc2)COCc2ccccc2)c(C)c(OC)n1` as the compound, how does the IC50 [1] read?
Answer: 6.08 µM

Question: And the IC50 [2]?
Answer: 3.48 µM

Question: What about the IC50 [3] of the same compound?
Answer: 2.42 µM

Question: And the IC50 [4]?
Answer: 3.67 µM

Question: And the IC50 [5]?
Answer: 3.84 µM

Question: And the IC50 [6]?
Answer: 4.22 µM

Question: For `COc1nc(=O)n(C)c(CC(O)(CO)CO)c1C`, which IC50 [1] is on record?
Answer: > 100 µM

Question: What about the IC50 [2] of the same compound?
Answer: > 100 µM

Question: What about the IC50 [3] of the same compound?
Answer: > 100 µM

Question: What about the IC50 [4] of the same compound?
Answer: > 100 µM

Question: And the IC50 [5]?
Answer: > 100 µM

Question: What about the IC50 [6] of the same compound?
Answer: > 100 µM

Question: Which results are given for `COc1nc(CC(F)(COC(C)=O)COC(C)=O)c(C)c(OC)n1`?
Answer: IC50 [1]: > 100 µM; IC50 [2]: > 100 µM; IC50 [3]: > 100 µM; IC50 [4]: > 100 µM; IC50 [5]: > 100 µM; IC50 [6]: > 100 µM

Question: `CC(=O)OCC(F)(COC(C)=O)Cc1c(C)c(=O)[nH]c(=O)n1C` was tested. Which IC50 [1] did it give?
Answer: > 100 µM

Question: What about the IC50 [2] of the same compound?
Answer: > 100 µM

Question: And the IC50 [3]?
Answer: > 100 µM

Question: What about the IC50 [4] of the same compound?
Answer: > 100 µM

Question: And the IC50 [5]?
Answer: > 100 µM

Question: What about the IC50 [6] of the same compound?
Answer: > 100 µM

Question: How did the Activity [7] turn out when `Cc1c(C=C(CO)CO)n(C)c(=O)[nH]c1=O` was run?
Answer: Active

Question: What about the Activity [8] of the same compound?
Answer: inactive

Question: What about the Activity [9] of the same compound?
Answer: Active

Question: What about the Activity [10] of the same compound?
Answer: inactive

Question: And the Activity [11]?
Answer: Active

Question: What about the IC50 [1] of the same compound?
Answer: > 100 µM

Question: And the IC50 [2]?
Answer: > 100 µM

Question: And the IC50 [3]?
Answer: > 100 µM

Question: And the IC50 [4]?
Answer: > 100 µM

Question: What about the Activity [12] of the same compound?
Answer: inactive

Question: And the IC50 [5]?
Answer: > 100 µM

Question: And the IC50 [6]?
Answer: > 100 µM

Question: What does the source list for `COc1nc(CC(O)(CO)CO)c(C)c(OC)n1`?
Answer: IC50 [1]: > 100 µM; IC50 [2]: > 100 µM; IC50 [3]: > 100 µM; IC50 [4]: > 100 µM; IC50 [5]: > 100 µM; IC50 [6]: > 100 µM

Question: How did the IC50 [1] turn out when `COc1nc(=O)n(C)c(CC(F)(COC(C)=O)COC(C)=O)c1C` was run?
Answer: > 100 µM

Question: And the IC50 [2]?
Answer: > 100 µM

Question: And the IC50 [3]?
Answer: > 100 µM

Question: What about the IC50 [4] of the same compound?
Answer: > 100 µM

Question: What about the IC50 [5] of the same compound?
Answer: > 100 µM

Question: What about the IC50 [6] of the same compound?
Answer: > 100 µM

Question: How did the IC50 [1] turn out when `CC(=O)OCC(=Cc1c(C)c(=O)[nH]c(=O)n1C)COC(C)=O` was run?
Answer: > 100 µM

Question: And the IC50 [2]?
Answer: > 100 µM

Question: What about the IC50 [3] of the same compound?
Answer: > 100 µM

Question: And the IC50 [4]?
Answer: > 100 µM

Question: What about the IC50 [5] of the same compound?
Answer: > 100 µM

Question: What about the IC50 [6] of the same compound?
Answer: > 100 µM

Question: For `COc1nc(=O)n(C)c(CC(O)(COCc2ccccc2)COCc2ccccc2)c1C`, which IC50 [1] is on record?
Answer: 33.5 µM

Question: And the IC50 [2]?
Answer: 57.2 µM

Question: And the IC50 [3]?
Answer: 33.9 µM

Question: What about the IC50 [4] of the same compound?
Answer: 29.5 µM

Question: What about the IC50 [5] of the same compound?
Answer: 49.8 µM

Question: And the IC50 [6]?
Answer: 23.7 µM

Question: With `COc1nc(=O)n(C)c(CC(O)(COC(C)=O)COC(C)=O)c1C` as the compound, how does the IC50 [1] read?
Answer: > 100 µM

Question: And the IC50 [2]?
Answer: > 100 µM

Question: What about the IC50 [3] of the same compound?
Answer: > 100 µM

Question: And the IC50 [4]?
Answer: > 100 µM

Question: And the IC50 [5]?
Answer: > 100 µM

Question: What about the IC50 [6] of the same compound?
Answer: > 100 µM
